Test results reported in patent US20160257710A1, “SELECTIVE INHIBITORS OF PROTEINASE 3” (INSERM (INSTITUT NATIONAL DE LA SANTÉ ET LA RECHERCHE …, priority 2013, published 2016).
Numbering of substitutions follows the chain as printed. The star is where a group is joined. EDDnp = O=[N+]([O-])c1ccc(NCCN*)c([N+](=O)[O-])c1

Experiments:
Type in all cases: biochemical
PR3I217R = target: T1, PR3I217R (Homo sapiens, UniProt P24158, I221R); experiment: Hydrolysis of FRET substrates, specificity constant kcat/KM
T1 construct: made in house; host or cells: Drosophila S2 cells
T1 sequence (P24158 28-248 I221R limits assumed): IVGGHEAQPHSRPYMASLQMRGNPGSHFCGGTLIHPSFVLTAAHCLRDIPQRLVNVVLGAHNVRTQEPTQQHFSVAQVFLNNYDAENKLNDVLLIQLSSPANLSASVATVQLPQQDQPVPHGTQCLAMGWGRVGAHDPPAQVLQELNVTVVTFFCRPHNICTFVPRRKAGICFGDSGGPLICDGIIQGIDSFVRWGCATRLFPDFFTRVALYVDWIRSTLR
Protocol: (§1) Recombinant PR3K99L and […] were produced in Drosophila S2 cells using the calcium phosphate method, and stable cell lines were selected using puromycin. Proteins were purified by affinity chromatography on Chelating Sepharose and analyzed by SDS-PAGE. The total protein concentration was determined with a BCA Protein Assay
(§2) Another critical difference between the two proteases is the replacement of a charged arginyl residue at position 217 in HNE by an Ile in PR3 in the vicinity of the S4 subsite. We investigated the importance of the S4 subsite in PR3 by producing two recombinant PR3 molecules with a […] substitution at position 99 (PR3K99L) and an Ile for Arg substitution at position 217 (PR3I217R). Wild type and recombinant PR3 were then assayed with FRET substrates derived from the PR3/NE substrate Abz-QPMAVVQSVPQ-EDDnp, and bearing either a negatively charged residue (Abz-QDMAVVQSVPQ-EDDnp) or a positively charged residue (QKMAVVQSVPQ-EDDnp) at P4. Wild type and recombinant proteases all cleave the original substrate at the V—V bond with about the same kcat/Km (Table 2).

PR3K99L = target: T2, PR3K99L (Homo sapiens, UniProt P24158, K115L); experiment: as above
T2 construct: made in house; host or cells: Drosophila S2 cells
T2 sequence (P24158 28-248 K115L limits assumed): T1 sequence (P24158 28-248 I221R limits assumed) with K88L, R194I
Protocol: as §1, §2

wtPR3 = target: T3, wtPR3 (Homo sapiens, UniProt P24158); experiment: as above
T3 sequence (P24158 28-248): T1 sequence (P24158 28-248 I221R limits assumed) with R194I
Protocol: as §2
We observed that a large panel of amino acid residues could be accommodated at the PR3 P3 subsite using a series of FRET substrates but a Tyr was preferred at this position (Table 3).

Proteinase 3 = target: T4, Proteinase 3 (Homo sapiens, UniProt P24158); experiment: Protease inhibition assay, second order rate constant kobs/[I] (method of Tian and Tsou)
T4 sequence (P24158 28-248): T1 sequence (P24158 28-248 I221R limits assumed) with R194I
Protocol: The compounds of the invention are advantageously selective inhibitors of PR3. […] As described under the Examples below (see PR3 inhibition assay), and as is generally known, efficacy of particular inhibitors against a target protease, for example, recombinant human PR3, is determined by combining the target with a substrate (for example Suc-AanV-SBzI), both in the absence of the inhibitor and in the present of different concentrations of such inhibitor to be tested. Typically, the efficacy of irreversible inhibitors are measured in terms of the second order rate constant of inhibition value (11) or kobs/l. Preferred inhibitors of the invention have typically a kobs/I of more than 10 M^−1s^−1, preferably more than 100 M^−1s^−1, and more preferably of more than […].
(§3) The inactivation of proteases by substrate analog inhibitors in the presence of the substrate by competition for the enzyme-binding site, was measured by the method of Tian and Tsou (17). In this system, product formation in the presence of an irreversible inhibitor approaches an asymptote, as described by
(§4) log([P∞]−[P])=log [P∞]−0.43A[Y]t
(§5) where [P∞] is the concentration of product formed at time approaching infinity, [P] is the concentration of product at time t, [Y] is the inhibitor concentration, and A is the apparent inhibition rate constant in the presence of the substrate. A is given by
(§6) where k+0 is the rate constant for association of the inhibitor with the enzyme, K^−1 is the inverted Michaelis constant, and [S] the substrate concentration. The apparent inhibition rate constant A is the slope of a plot of log([P∞]−[P]) against t, to give the second-order rate constant of inhibition k+0

CatG = target: T5, CatG (Homo sapiens, UniProt P08311); experiment: Inhibition of protease activity in crude lung secretions of patients (IPF, cystic fibrosis); conditions: 30 min incubation, IPF and CF samples
T5 sequence (P08311 21-244): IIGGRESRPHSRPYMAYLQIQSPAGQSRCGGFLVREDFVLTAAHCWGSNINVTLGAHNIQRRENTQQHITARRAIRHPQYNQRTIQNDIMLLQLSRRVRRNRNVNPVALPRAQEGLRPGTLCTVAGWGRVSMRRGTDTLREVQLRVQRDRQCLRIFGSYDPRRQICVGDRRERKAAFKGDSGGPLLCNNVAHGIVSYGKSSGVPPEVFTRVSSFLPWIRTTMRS

PR3 = target: T6, PR3 (Homo sapiens, UniProt P24158); experiment: as above; conditions: 30 min incubation, IPF and CF samples
T6 construct: in a lysate of purified human neutrophils; endogenous in cells; host or cells: purified human neutrophils (lysate)
T6 sequence (P24158 28-248): T1 sequence (P24158 28-248 I221R limits assumed) with R194I
Protocol: Crude lung secretions of patients with chronic inflammatory disorders associating significant neutrophil recruitment (IPF, Cystic fibrosis) were used as biological material to assay the efficacy of phosphonate inhibitors. We first measured the rate of cleavage of the PR3 substrate in >3 IPF and >3 CF crude samples before and after incubation with compounds 2 and 4 (×μM final). All crude samples cleaved the PR3 substrate in the absence of inhibitor and the cleavage always occurred at the expected bond, i.e. the cleavage bond of PR3, as checked by HPLC. The PR3 concentration was in the 0.1-1 μM range in lung secretions, based on the rate of substrate hydrolysis. […] Further, the rate of PR3 inactivation in a crude biological sample […] that of purified PR3, which means that there is no adverse effect impairing the PR3 inhibition in lung secretions of patients with inflammatory disorders.

HNE = target: T7, HNE (Homo sapiens, UniProt P08246); experiment: as above; conditions: 30 min incubation, IPF and CF samples
T7 sequence (P08246 30-267): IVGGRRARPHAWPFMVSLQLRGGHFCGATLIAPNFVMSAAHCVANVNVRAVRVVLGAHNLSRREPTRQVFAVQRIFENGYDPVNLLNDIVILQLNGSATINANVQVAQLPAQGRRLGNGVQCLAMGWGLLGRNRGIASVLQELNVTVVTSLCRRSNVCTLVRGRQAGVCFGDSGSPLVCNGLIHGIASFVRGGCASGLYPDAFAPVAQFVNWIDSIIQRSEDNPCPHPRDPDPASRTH

Elastase = target: T8, Elastase (Homo sapiens, UniProt P08246); experiment: Protease inhibition assay, second order rate constant kobs/[I] (method of Tian and Tsou); conditions: n.s where no significant inhibition
T8 sequence (P08246 30-267): T7 sequence (P08246 30-267)
Protocol: as §3, §4, §5, §6

Row | Substance | factor of increase of kcat/Km versus original substrate, PR3I217R (PR3I217R) [times] | cleavage by PR3K99L (PR3K99L) | factor of decrease of kcat/Km versus original substrate, wtPR3 (wtPR3) | Proteinase 3 kobs/[I] (Proteinase 3) [M⁻¹ s⁻¹] | kobs/I range (Proteinase 3; PR3) | CatG activity in crude lung secretions (CatG) | hydrolysis of PR3 substrate in crude lung secretions (PR3) | HNE activity in crude lung secretions (HNE) | Elastase kobs/[I] (Elastase)
1 | ABZ-Gln-Asp-Met-Ala-Val-Val-Gln-Ser-Val-Pro-Gln-EDDnp (Abz-QDMAVVQSVPQ-EDDnp) [FRET substrate with negatively charged residue at P4] | 6 | completely resists cleavage | 3 | – | – | – | – | – | –
2 | Biotin-Pro-Tyr-Asp-Ala^P(O—C6H4-4-Cl)2 [Compound 4] | – | – | – | 4168 ± 553 | ~10^3 M^−1s^−1 | remained unchanged | total inhibition | remained unchanged | n.s
